According to patent US20190350955A1, “METHODS AND PHARMACEUTICAL COMPOSITIONS FOR THE TREATMENT OF CARDIOMYOPATHIES” (INSERM (Institut National de la Sante et de la Recherche …, priority 2016, published 2019):

Assays:
Assay type in all cases: in vivo, mouse
Lmna^H222P/H222P mice [1] = experiment: NAD+ content quantification in heart and liver of treated Lmna H222P/H222P mice; conditions: NAM 500 mg/kg/q.a.d. IP, from 17 weeks of age for 9 weeks, vs placebo
Protocol: Mice were bred in an accredited animal facility (accreditation number: C-75-13-08). All experiments on mice were approved by the Comité d'éthique en expérimentation animate Charles Darwin No 5. Mice Lmna^H222P/H222P were backcrossed 8 times to 129S2/SvPasOrlRj strain mice to obtain pure genetic background. Male mice used for the studies were maintained under a 12 h light/12 h dark cycle at constant temperature (23° C.) with free access to food and water. Nicotinamide riboside (NR) complementation: Animals at 17 weeks of age were fed for 9 weeks with either a chow diet (A04: Scientific Animal Food & Engineering) or a chow diet complemented with 0.25% of NR (kindly provided by ChromaDex, Inc. California) corresponding to a dose of 400 mg/kg/day for a mouse weighing 25 g eating 4 g of food per day. […]
Fresh mouse tissues were homogenized and processed according to previous report (Sander B J, Oelshlegel F J & Brewer G J (1976) Quantitative analysis of pyridine nucleotides in red blood cells: a single-step extraction procedure. Anal. Biochem. 71: 29-36). The concentration of NAD+ in heart tissue was determined using a spectrophotometric assay at 550 nm based on an alcohol dehydrogenase cycling reaction, in which a Methyl Thiazolyl Tetrazolium (MTT) is reduced to Formazan. […]

Lmna^H222P/H222P mice [2] = experiment: Echocardiography and heart size in treated Lmna H222P/H222P mice; conditions: NAM 500 mg/kg/q.a.d. IP, 9 weeks, vs placebo
Protocol: (§1) Mice were bred in an accredited animal facility (accreditation number: C-75-13-08). All experiments on mice were approved by the Comité d'éthique en expérimentation animate Charles Darwin No 5. Mice Lmna^H222P/H222P were backcrossed 8 times to 129S2/SvPasOrlRj strain mice to obtain pure genetic background. Male mice used for the studies were maintained under a 12 h light/12 h dark cycle at constant temperature (23° C.) with free access to food and water. Nicotinamide riboside (NR) complementation: Animals at 17 weeks of age were fed for 9 weeks with either a chow diet (A04: Scientific Animal Food & Engineering) or a chow diet complemented with 0.25% of NR (kindly provided by ChromaDex, Inc. California) corresponding to a dose of 400 mg/kg/day for a mouse weighing 25 g eating 4 g of food per day. Nicotinamide (NAM) treatment: Animals at 17 weeks of age were injected intraperitoneally (IP) every two days (q.a.d.) for 9 weeks with either physiologic serum or physiologic serum added with NAM at 50 mg/ml corresponding to a dose of 500 mg/kg for a mouse weighing 25 g.
Mouse transthoracic echocardiography was performed using an ACUSON 128XP/10 ultrasound with a 11 Mhz linear probe (Mountain View).MHz transducer applied to the chest wall. Mice were maintained under anesthetized with 0.75% isoflurane anaesthesia (0.75% in O2) and placed on a heating pad (25° C.). Left ventricular (LV) parameters were obtained from M-mode recordings in a modified short axis view. The intra ventricular septum (IVS), LV posterior wall (LVPW), LV diameter (LVD) in diastole and systole, the percentage of fractional shortening (FS) and the heart rate (HR) were measured from the mean of at least three separate cardiac cycles. A “blinded” echocardiographer, unaware of the genotype and the treatment, performed the examinations.

Lmna^H222P/H222P mice [3] = experiment: qPCR of cardiac remodeling markers Myh7, Nppa, Col1a2 in heart; conditions: NAM 500 mg/kg/q.a.d. IP, 9 weeks
Protocol: as §1
Total RNAs were extracted from around 5 mg of mouse heart using RNeasy Mini kit (Qiagen). RNAs integrity were controlled on the Bioanalyzer 2100 (Agilent). […] Relative mRNA transcript levels calculated using the 2^ΔCT method were normalized by comparison to housekeeping mRNA.

SRF^HKO mice = experiment: RT-qPCR gene expression in SRF HKO heart; conditions: i.p. administration from D8 to D15
Text: (§2) Transgenic mice. All experiments with animals conformed to the Directive 2010/63/EU of the European Parliament and were approved by the ethics committee Charles Darvin #5 (agreement 00369.01). SRF^HKO mice bear the tamoxifen-inducible α-MHC-MerCrMer transgene and the Siffloxed allele (Sf/Sf) as described previously (Parlakian et al. (2005). Temporally controlled onset of dilated cardiomyopathy through disruption of the SRF gene in adult heart. Journal 112, 2930-2939; Tritsch et al. (2013). An SRF/miR-1 axis regulates NCX1 and Annexin A5 protein levels in the normal and failing heart. Journal 98, 372-380). Transgenic mice have been bred for more than 20 generations in C57BL/6N background. The mice were housed in standard animal facility (CEF. Hôpital Pitié Salpétrière, agreement A-75-13-15, 75013 Paris), under a 12-h dark/light cycle. Tamoxifen (Sigma T5648) was administrated by i.p. injection at a dose of 0.7 mg diluted in 100 μl peanut oil at day (D) 0, D1 and D2. (Sf/Sf) littermates injected with tamoxifen at the same time than mutant were used as controls.
Nicotinamide and nicotinamide riboside i.p. administration. Nicotinamide was diluted in saline at 300 mM. Nicotinamide riboside (NR) bromide salt stock solution (1M) was in 10 mM citric acid pH 6.0. For injection 3 volumes of NR stock solution was mixed extemporaneously with 7 volumes of PBS to obtain a 300 mM injectable solution at pH 7.2. Mice were injected daily at a dose of 1 μmole/g body weight.
SRF^HKO and control (Sf/Sf) mice were administered either rodent maintenance SAFE A04 diet containing 3.10% crude fat. 16.10% crude proteins. 26% starch and 1.9% sugar (Scientific Animal Food Engineering, Paris, France) or SAFE # A04 diet supplemented with NR. NR was provided by Chromadex under brand name NIAGEN (Irvine Calif. USA). The soft pellets were manually prepared every 5 days by mixing 1.65 g of NR into 500 g of powdered SAFE A04 diet and 235 ml of water to reach 2.24 mg of NR/g (wet weight). Control diet was prepared in the same way omitting NR. Mice had ad libitum access to food and water. Mice (average body weight 31.3±0.82 g, no difference between groups) consumed an average of 6 g of soft food per day, reaching a daily intake of 450 mg NR/kg. No difference in food intake was observed between SRF^HKO and control mice.
cDNAs were reverse transcribed from RNA (1.5 μg) extracted in TRIzol (Thermofisher) from cell cultures and tissues using the Superscript II Reverse Transcriptase (Life Technologies). Quantitative PCR was carried out on a Light Cycler 480 (Roche Diagnostics) using Fast Start SYBR Green Master (Roche Diagnostics). Quantification of gene expression was calculated as R=2^ΔCt(Ref Cp−target Cp), with Hprt used as a as reference. Primers were designed using the NCBI Primer-BLAST software. Primer sequences are available on request.

SRF^HKO hearts = experiment: Transcriptomic analysis of SRF HKO hearts after phenylephrine administration
Text: as §2
(§3) The series of mice treated with PE and the impact of the treatment on cardiac parameters have been published previously (Tritsch et al. (2013). An SRF/miR-1 axis regulates NCX1 and Annexin A5 protein levels in the normal and failing heart. Journal 98, 372-380). Briefly. […]

control hearts = experiment: Transcriptomic analysis of control hearts after phenylephrine administration; conditions: PE 80 mg/kg/day for 15 days
Text: as §2, §3

Compound	NAD+ content in liver and heart (Lmna^H222P/H222P mice [1])	cardiac contractility (Lmna^H222P/H222P mice [2])	left-ventricular end diastolic diameter (Lmna^H222P/H222P mice [2])	left-ventricular end systolic diameter (Lmna^H222P/H222P mice [2])	expression of Myh7, Nppa and Col1a2 (Lmna^H222P/H222P mice [3])	Srf and Nmrk2 expression levels (SRF^HKO mice)	Nmrk2 expression (SRF^HKO hearts; PE 80 mg/kg/day for 15 days, SRF HKO hearts)	Nampt and Pnp expression (SRF^HKO hearts; PE treatment)	Nmrk2 expression (control hearts)
NC(=O)c1cccnc1 [NAM, Nicotinamide]	did not exhibit any changes	no significant changes	no significant changes	no significant changes	no changed expression	not changed	–	–	–
CNC[C@H](O)c1cccc(O)c1 [PE, phenylephrin]	–	–	–	–	–	–	57 fold	depressed	4 fold
